Experiment: excess molar enthalpy (molar enthalpy of mixing); xn = mol fraction of the nth substance listed
Settings: 298.15 K, 101.33 kPa, Liquid

CCCCCCCCCC#N [1-decanenitrile] + CSCS(C)=O
Settings	excess molar enthalpy [kcal/mol]
x2 = 0.02311	0.0228
x2 = 0.02808	0.029
x2 = 0.05736	0.0595
x2 = 0.07887	0.0808
x2 = 0.1059	0.108
x2 = 0.1267	0.128
x2 = 0.1515	0.149
x2 = 0.186	0.176
x2 = 0.2278	0.204
x2 = 0.2893	0.232
x2 = 0.3382	0.251
x2 = 0.3657	0.259
x2 = 0.4935	0.272
x2 = 0.5572	0.269
x2 = 0.6575	0.251
x2 = 0.7014	0.239
x2 = 0.7482	0.22
x2 = 0.7873	0.201
x2 = 0.8609	0.158
x2 = 0.9468	0.0728
x2 = 0.976	0.0352
x2 = 0.988	0.0193

CCCCCCCCCC#N [1-decanenitrile] + C[S+](C)[O-]
Settings	excess molar enthalpy [kcal/mol]
x2 = 0.03778	0.0338
x2 = 0.04533	0.0418
x2 = 0.07244	0.0646
x2 = 0.08356	0.0746
x2 = 0.1458	0.132
x2 = 0.1516	0.137
x2 = 0.1578	0.141
x2 = 0.2138	0.183
x2 = 0.232	0.195
x2 = 0.3492	0.256
x2 = 0.4404	0.285
x2 = 0.52	0.299
x2 = 0.5471	0.302
x2 = 0.5564	0.304
x2 = 0.6253	0.301
x2 = 0.7275	0.282
x2 = 0.7979	0.251
x2 = 0.9212	0.139
x2 = 0.962	0.0765
x2 = 0.9868	0.0295

CCCCCCCCCCC#N [1-decylcyanide] + CSCS(C)=O
Settings	excess molar enthalpy [kcal/mol]
x2 = 0.02536	0.029
x2 = 0.04055	0.0463
x2 = 0.04193	0.0496
x2 = 0.07582	0.0856
x2 = 0.07724	0.0867
x2 = 0.1217	0.127
x2 = 0.1402	0.142
x2 = 0.1596	0.159
x2 = 0.1889	0.181
x2 = 0.2628	0.223
x2 = 0.2767	0.231
x2 = 0.3234	0.252
x2 = 0.4218	0.278
x2 = 0.5052	0.286
x2 = 0.77	0.237
x2 = 0.8316	0.202
x2 = 0.8694	0.17
x2 = 0.9043	0.138
x2 = 0.9095	0.132
x2 = 0.9464	0.0864
x2 = 0.9933	0.0131

CCCCCCCCCCC#N [1-decylcyanide] + C[S+](C)[O-]
Settings	excess molar enthalpy [kcal/mol]
x2 = 0.02797	0.0287
x2 = 0.05445	0.0548
x2 = 0.09234	0.0936
x2 = 0.1207	0.119
x2 = 0.1811	0.175
x2 = 0.1853	0.178
x2 = 0.2855	0.249
x2 = 0.3924	0.296
x2 = 0.5139	0.322
x2 = 0.5302	0.322
x2 = 0.6423	0.322
x2 = 0.7161	0.308
x2 = 0.8292	0.254
x2 = 0.8917	0.195
x2 = 0.9298	0.145
x2 = 0.9772	0.0547
x2 = 0.98	0.0491
x2 = 0.9927	0.0191

CCCCCCCCCCCCC#N [dodecanecarbonitrile] + CSCS(C)=O
Settings	excess molar enthalpy [kcal/mol]
x2 = 0.06513	0.0772
x2 = 0.0823	0.104
x2 = 0.1316	0.15
x2 = 0.2014	0.209
x2 = 0.265	0.248
x2 = 0.3508	0.282
x2 = 0.367	0.289
x2 = 0.4233	0.301
x2 = 0.5443	0.306
x2 = 0.6344	0.294
x2 = 0.7341	0.264
x2 = 0.7878	0.237
x2 = 0.8039	0.227
x2 = 0.9082	0.138
x2 = 0.9683	0.0588
x2 = 0.9847	0.0293

CCCCCCCCCCCCC#N [dodecanecarbonitrile] + C[S+](C)[O-]
Settings	excess molar enthalpy [kcal/mol]
x2 = 0.02177	0.0197
x2 = 0.06754	0.0683
x2 = 0.09519	0.0952
x2 = 0.09988	0.104
x2 = 0.1229	0.124
x2 = 0.2202	0.211
x2 = 0.2575	0.237
x2 = 0.2709	0.244
x2 = 0.28	0.253
x2 = 0.4232	0.309
x2 = 0.5464	0.322
x2 = 0.6358	0.318
x2 = 0.7394	0.297
x2 = 0.7753	0.283
x2 = 0.8034	0.269
x2 = 0.8609	0.226
x2 = 0.9001	0.181
x2 = 0.9286	0.144
x2 = 0.9571	0.0958
x2 = 0.9821	0.0459

CCCCCCC#N [heptanenitrile] + CSCS(C)=O
Settings	excess molar enthalpy [kcal/mol]
x2 = 0.02045	0.0195
x2 = 0.05221	0.048
x2 = 0.08567	0.0762
x2 = 0.09776	0.0854
x2 = 0.1935	0.143
x2 = 0.2208	0.157
x2 = 0.2701	0.177
x2 = 0.3893	0.208
x2 = 0.4914	0.216
x2 = 0.579	0.212
x2 = 0.7478	0.171
x2 = 0.8609	0.111
x2 = 0.936	0.0591
x2 = 0.9576	0.0395
x2 = 0.9714	0.0275

CCCCCCC#N [heptanenitrile] + C[S+](C)[O-]
Settings	excess molar enthalpy [kcal/mol]
x2 = 0.02225	0.0157
x2 = 0.07063	0.0501
x2 = 0.08316	0.059
x2 = 0.119	0.0815
x2 = 0.1747	0.116
x2 = 0.1851	0.123
x2 = 0.2248	0.142
x2 = 0.2423	0.153
x2 = 0.3049	0.179
x2 = 0.3581	0.199
x2 = 0.3605	0.201
x2 = 0.4935	0.23
x2 = 0.5772	0.233
x2 = 0.6522	0.226
x2 = 0.7056	0.214
x2 = 0.8946	0.114
x2 = 0.9545	0.0549
x2 = 0.9792	0.0267

CCCCCC#N [hexanenitrile] + CSCS(C)=O
Settings	excess molar enthalpy [kcal/mol]
x2 = 0.01678	0.013
x2 = 0.02979	0.0247
x2 = 0.05841	0.0472
x2 = 0.07605	0.0589
x2 = 0.1435	0.103
x2 = 0.1944	0.13
x2 = 0.2184	0.141
x2 = 0.2608	0.158
x2 = 0.3826	0.188
x2 = 0.4382	0.193
x2 = 0.4785	0.194
x2 = 0.5751	0.187
x2 = 0.7307	0.15
x2 = 0.8373	0.107
x2 = 0.9177	0.0609
x2 = 0.9392	0.0468
x2 = 0.9784	0.0178

CCCCCC#N [hexanenitrile] + C[S+](C)[O-]
Settings	excess molar enthalpy [kcal/mol]
x2 = 0.07452	0.0546
x2 = 0.09271	0.0665
x2 = 0.1474	0.1
x2 = 0.1952	0.125
x2 = 0.2583	0.154
x2 = 0.3135	0.174
x2 = 0.3528	0.185
x2 = 0.4343	0.201
x2 = 0.4908	0.207
x2 = 0.5806	0.205
x2 = 0.7154	0.181
x2 = 0.842	0.129
x2 = 0.8892	0.0984
x2 = 0.9559	0.0454
x2 = 0.9855	0.0149

CCCCCCCCCCCC#N [n-dodecanenitrile] + CSCS(C)=O
Settings	excess molar enthalpy [kcal/mol]
x2 = 0.03008	0.0375
x2 = 0.03781	0.0476
x2 = 0.09203	0.107
x2 = 0.1008	0.114
x2 = 0.1789	0.178
x2 = 0.207	0.198
x2 = 0.2152	0.204
x2 = 0.3197	0.261
x2 = 0.3517	0.27
x2 = 0.5024	0.3
x2 = 0.5857	0.301
x2 = 0.7084	0.277
x2 = 0.8115	0.223
x2 = 0.8979	0.148
x2 = 0.9592	0.0667
x2 = 0.9865	0.0238

CCCCCCCCCCCC#N [n-dodecanenitrile] + C[S+](C)[O-]
Settings	excess molar enthalpy [kcal/mol]
x2 = 0.02506	0.0231
x2 = 0.02612	0.0261
x2 = 0.07491	0.0764
x2 = 0.09988	0.104
x2 = 0.1665	0.168
x2 = 0.1791	0.185
x2 = 0.1948	0.194
x2 = 0.2522	0.243
x2 = 0.3366	0.293
x2 = 0.4308	0.327
x2 = 0.562	0.341
x2 = 0.7592	0.298
x2 = 0.8602	0.231
x2 = 0.8956	0.193
x2 = 0.9461	0.114
x2 = 0.9649	0.08
x2 = 0.9886	0.0287

CCCCCCCCC#N [nonanenitrile] + CSCS(C)=O
Settings	excess molar enthalpy [kcal/mol]
x2 = 0.01839	0.0199
x2 = 0.03954	0.0411
x2 = 0.08357	0.0801
x2 = 0.1186	0.108
x2 = 0.175	0.149
x2 = 0.2257	0.178
x2 = 0.2686	0.199
x2 = 0.3721	0.232
x2 = 0.3812	0.234
x2 = 0.4654	0.25
x2 = 0.5564	0.253
x2 = 0.6409	0.241
x2 = 0.779	0.195
x2 = 0.8417	0.155
x2 = 0.8806	0.126
x2 = 0.9058	0.106
x2 = 0.9564	0.0531
x2 = 0.9784	0.0266

CCCCCCCCC#N [nonanenitrile] + C[S+](C)[O-]
Settings	excess molar enthalpy [kcal/mol]
x2 = 0.05896	0.0512
x2 = 0.07322	0.0623
x2 = 0.09784	0.0826
x2 = 0.1285	0.107
x2 = 0.1721	0.141
x2 = 0.1898	0.153
x2 = 0.2365	0.183
x2 = 0.2408	0.187
x2 = 0.2698	0.204
x2 = 0.2836	0.211
x2 = 0.3841	0.252
x2 = 0.4577	0.272
x2 = 0.5425	0.285
x2 = 0.5442	0.285
x2 = 0.5569	0.285
x2 = 0.703	0.271
x2 = 0.7734	0.245
x2 = 0.8496	0.197
x2 = 0.8991	0.15
x2 = 0.939	0.103
x2 = 0.9712	0.0531
x2 = 0.9917	0.017

CCCCCCCC#N [octanenitrile] + CSCS(C)=O
Settings	excess molar enthalpy [kcal/mol]
x2 = 0.02232	0.0208
x2 = 0.06732	0.064
x2 = 0.1083	0.0967
x2 = 0.16	0.133
x2 = 0.2232	0.17
x2 = 0.3476	0.216
x2 = 0.5207	0.237
x2 = 0.6218	0.228
x2 = 0.7086	0.206
x2 = 0.7769	0.177
x2 = 0.869	0.122
x2 = 0.9129	0.0878
x2 = 0.9266	0.0774
x2 = 0.9548	0.0497
x2 = 0.9879	0.0154

CCCCCCCC#N [octanenitrile] + C[S+](C)[O-]
Settings	excess molar enthalpy [kcal/mol]
x2 = 0.02667	0.0195
x2 = 0.037	0.0293
x2 = 0.1176	0.0892
x2 = 0.18	0.134
x2 = 0.2399	0.169
x2 = 0.3293	0.213
x2 = 0.3877	0.233
x2 = 0.4654	0.251
x2 = 0.552	0.261
x2 = 0.6233	0.256
x2 = 0.7022	0.244
x2 = 0.8267	0.189
x2 = 0.8785	0.149
x2 = 0.9546	0.068
x2 = 0.9616	0.057
x2 = 0.992	0.0135

CCCCCCCCCCCCCC#N [tetradecanenitrile] + CSCS(C)=O
Settings	excess molar enthalpy [kcal/mol]
x2 = 0.03538	0.0412
x2 = 0.05372	0.0689
x2 = 0.08438	0.103
x2 = 0.1289	0.153
x2 = 0.1565	0.177
x2 = 0.1984	0.21
x2 = 0.3348	0.281
x2 = 0.505	0.304
x2 = 0.6332	0.291
x2 = 0.6721	0.283
x2 = 0.8155	0.229
x2 = 0.8867	0.172
x2 = 0.9123	0.145
x2 = 0.9566	0.0871
x2 = 0.9858	0.0352

CCCCCCCCCCCCCC#N [tetradecanenitrile] + C[S+](C)[O-]
Settings	excess molar enthalpy [kcal/mol]
x2 = 0.02407	0.0307
x2 = 0.06045	0.0671
x2 = 0.1219	0.133
x2 = 0.1415	0.154
x2 = 0.2193	0.219
x2 = 0.2527	0.244
x2 = 0.3063	0.279
x2 = 0.4181	0.323
x2 = 0.4877	0.339
x2 = 0.6186	0.345
x2 = 0.7619	0.311
x2 = 0.8716	0.229
x2 = 0.8962	0.201
x2 = 0.911	0.176
x2 = 0.9532	0.109
x2 = 0.9692	0.0793
x2 = 0.9809	0.0491

— the NIST ThermoML archive (doi:10.1021/je0499317)
